Data set [1] deals with Sodium channel protein type 1 subunit alpha (Homo sapiens) (UniProt P35498). In words: Activation of human Nav1.1 expressed in HEK293 cells assessed as ratio of compound activation AUC to baseline activation AUC at 0.12 uM at -120 mV holding potential by Qpatch assay. Format: cell-based.
Data set [2] addresses Sodium channel protein type 2 subunit alpha (Homo sapiens) (UniProt Q99250). In words: Activation of human Nav1.2 expressed in CHOK1 cells assessed as ratio of compound activation AUC to baseline activation AUC at 3.3 uM at -120 mV holding potential by Qpatch assay. Type of data set: cell-based.
In data set [3] the target is Sodium channel protein type 4 subunit alpha (Homo sapiens) (UniProt P35499). The experiment in a line: Activation of human Nav1.4 expressed in HEK293 cells assessed as ratio of compound activation AUC to baseline activation AUC at 3.3 uM at -120 mV holding potential by Qpatch assay. Format: cell-based.
The target of data set [4] is Sodium channel protein type 1 subunit alpha (Homo sapiens) (UniProt P35498). In words: Activation of human Nav1.1 expressed in HEK293 cells assessed as ratio of compound activation AUC to baseline activation AUC at 0.37 uM at -120 mV holding potential by Qpatch assay. Type of data set: cell-based.
Data set [5] addresses Sodium channel protein type 3 subunit alpha (Homo sapiens) (UniProt Q9NY46). The experiment in a line: Activation of human Nav1.3 expressed in CHOK1 cells assessed as ratio of compound activation AUC to baseline activation AUC at 3.3 uM at -120 mV holding potential by Qpatch assay. Type of data set: cell-based.
Data set [6] deals with Sodium channel protein type 5 subunit alpha (Homo sapiens, UniProt Q14524). In words: Activation of human Nav1.5 expressed in HEK293 cells assessed as ratio of compound activation AUC to baseline activation AUC at 3.3 uM at -120 mV holding potential by Qpatch assay. Format: cell-based. The settings on record: hek293, 3.3 µM.
Data set [7] addresses Sodium channel protein type 8 subunit alpha (Homo sapiens) (UniProt Q9UQD0). In words: Activation of human Nav1.6 expressed in HEK293 cells assessed as ratio of compound activation AUC to baseline activation AUC at 3.3 uM at -120 mV holding potential by Qpatch assay. Format: cell-based.
Data set [8] addresses Sodium channel protein type 9 subunit alpha (Homo sapiens) (UniProt Q15858). In words: Activation of human Nav1.7 expressed in HEK293 cells assessed as ratio of compound activation AUC to baseline activation AUC at 3.3 uM at -120 mV holding potential by Qpatch assay. Format: cell-based.
Data set [9] addresses Sodium channel protein type 1 subunit alpha (Homo sapiens) (UniProt P35498). The experiment in a line: Activation of human Nav1.1 expressed in HEK293 cells assessed as ratio of compound activation AUC to baseline activation AUC at 1.11 uM at -120 mV holding potential by Qpatch assay. Type of data set: cell-based.
The target is the same in data set [10]. The experiment in a line: Activation of human Nav1.1 expressed in HEK293 cells at 3.3 uM at -120 mV holding potential by Qpatch assay relative to control. Type of data set: cell-based.
The target is the same in data set [11]. In words: Activation of human Nav1.1 expressed in HEK293 cells assessed as ratio of compound activation AUC to baseline activation AUC at 3.3 uM at -120 mV holding potential by Qpatch assay. Type of data set: cell-based.
In data set [12] the target is Sodium channel protein type 1 subunit alpha (Mus musculus) (UniProt A2APX8). The experiment in a line: Activation of Nav1.1 in C57BL/6 mouse GABAergic cortical neurons assessed as rescue of ICA-121431-induced neuronal firing loss at 300 nM at holding potential -65 mV by current clamp assay.

Active and inactive are the calls of the source. The calls are words filed in the database; no cut-off is given here. Non-standard residues stand in square brackets, D forms with d. Residues, ends and D or L forms follow the SMILES beside them. 1Nal = N[C@@H](Cc1cccc2ccccc12)C(=O)O; 2Nal = N[C@@H](Cc1ccc2ccccc2c1)C(=O)O

Sodium channel protein type 2 subunit alpha (Homo sapiens), sequence (Q99250 whole entry, looked up): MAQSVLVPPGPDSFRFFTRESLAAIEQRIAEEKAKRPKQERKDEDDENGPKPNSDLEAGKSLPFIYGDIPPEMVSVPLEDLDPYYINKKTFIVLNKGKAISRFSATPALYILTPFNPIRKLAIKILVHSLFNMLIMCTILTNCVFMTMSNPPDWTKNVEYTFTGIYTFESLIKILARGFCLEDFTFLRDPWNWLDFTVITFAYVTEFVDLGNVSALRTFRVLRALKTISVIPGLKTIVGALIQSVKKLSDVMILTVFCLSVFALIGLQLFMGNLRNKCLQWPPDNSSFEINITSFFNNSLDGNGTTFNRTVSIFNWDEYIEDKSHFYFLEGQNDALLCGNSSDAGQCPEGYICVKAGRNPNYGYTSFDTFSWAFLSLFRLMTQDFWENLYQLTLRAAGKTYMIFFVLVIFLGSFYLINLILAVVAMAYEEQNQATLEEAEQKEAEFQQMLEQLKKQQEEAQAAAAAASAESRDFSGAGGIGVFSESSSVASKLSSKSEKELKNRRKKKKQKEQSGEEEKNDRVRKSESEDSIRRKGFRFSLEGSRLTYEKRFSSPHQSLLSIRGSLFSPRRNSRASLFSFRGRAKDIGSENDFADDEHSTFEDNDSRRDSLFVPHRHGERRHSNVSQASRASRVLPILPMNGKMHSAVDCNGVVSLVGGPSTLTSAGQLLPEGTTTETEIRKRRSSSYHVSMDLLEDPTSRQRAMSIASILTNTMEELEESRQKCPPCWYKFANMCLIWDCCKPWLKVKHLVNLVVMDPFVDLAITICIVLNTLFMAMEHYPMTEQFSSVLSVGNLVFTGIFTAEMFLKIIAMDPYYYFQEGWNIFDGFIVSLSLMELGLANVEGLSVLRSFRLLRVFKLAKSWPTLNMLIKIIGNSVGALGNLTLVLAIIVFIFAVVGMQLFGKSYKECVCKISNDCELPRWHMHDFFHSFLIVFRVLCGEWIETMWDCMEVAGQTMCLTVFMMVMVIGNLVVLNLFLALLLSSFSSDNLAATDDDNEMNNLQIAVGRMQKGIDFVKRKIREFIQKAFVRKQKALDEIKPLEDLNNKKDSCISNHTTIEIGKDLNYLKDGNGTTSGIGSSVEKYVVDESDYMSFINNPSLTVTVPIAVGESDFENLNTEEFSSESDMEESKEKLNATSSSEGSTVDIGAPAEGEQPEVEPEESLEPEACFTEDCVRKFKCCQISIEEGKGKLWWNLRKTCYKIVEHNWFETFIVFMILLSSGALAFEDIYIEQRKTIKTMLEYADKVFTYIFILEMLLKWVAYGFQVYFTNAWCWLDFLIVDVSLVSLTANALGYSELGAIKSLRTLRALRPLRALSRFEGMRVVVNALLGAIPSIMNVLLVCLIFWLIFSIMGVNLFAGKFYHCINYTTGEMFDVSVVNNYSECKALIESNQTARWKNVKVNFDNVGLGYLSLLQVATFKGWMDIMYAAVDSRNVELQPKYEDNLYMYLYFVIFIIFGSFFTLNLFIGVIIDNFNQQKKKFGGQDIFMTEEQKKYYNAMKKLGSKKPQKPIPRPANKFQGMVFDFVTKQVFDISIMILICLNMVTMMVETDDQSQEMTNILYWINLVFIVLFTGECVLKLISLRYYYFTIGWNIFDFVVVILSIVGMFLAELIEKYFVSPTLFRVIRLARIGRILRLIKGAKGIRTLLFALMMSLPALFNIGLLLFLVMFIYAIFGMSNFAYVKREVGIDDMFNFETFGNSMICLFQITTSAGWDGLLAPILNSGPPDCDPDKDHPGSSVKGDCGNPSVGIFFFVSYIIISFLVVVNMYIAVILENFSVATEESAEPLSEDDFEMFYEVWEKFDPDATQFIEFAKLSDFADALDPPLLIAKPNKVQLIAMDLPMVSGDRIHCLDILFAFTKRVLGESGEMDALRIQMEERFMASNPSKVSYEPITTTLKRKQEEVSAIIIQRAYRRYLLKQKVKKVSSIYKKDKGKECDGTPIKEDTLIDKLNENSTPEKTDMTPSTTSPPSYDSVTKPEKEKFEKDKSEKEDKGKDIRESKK
Sodium channel protein type 9 subunit alpha (Homo sapiens), sequence (Q15858 whole entry, looked up): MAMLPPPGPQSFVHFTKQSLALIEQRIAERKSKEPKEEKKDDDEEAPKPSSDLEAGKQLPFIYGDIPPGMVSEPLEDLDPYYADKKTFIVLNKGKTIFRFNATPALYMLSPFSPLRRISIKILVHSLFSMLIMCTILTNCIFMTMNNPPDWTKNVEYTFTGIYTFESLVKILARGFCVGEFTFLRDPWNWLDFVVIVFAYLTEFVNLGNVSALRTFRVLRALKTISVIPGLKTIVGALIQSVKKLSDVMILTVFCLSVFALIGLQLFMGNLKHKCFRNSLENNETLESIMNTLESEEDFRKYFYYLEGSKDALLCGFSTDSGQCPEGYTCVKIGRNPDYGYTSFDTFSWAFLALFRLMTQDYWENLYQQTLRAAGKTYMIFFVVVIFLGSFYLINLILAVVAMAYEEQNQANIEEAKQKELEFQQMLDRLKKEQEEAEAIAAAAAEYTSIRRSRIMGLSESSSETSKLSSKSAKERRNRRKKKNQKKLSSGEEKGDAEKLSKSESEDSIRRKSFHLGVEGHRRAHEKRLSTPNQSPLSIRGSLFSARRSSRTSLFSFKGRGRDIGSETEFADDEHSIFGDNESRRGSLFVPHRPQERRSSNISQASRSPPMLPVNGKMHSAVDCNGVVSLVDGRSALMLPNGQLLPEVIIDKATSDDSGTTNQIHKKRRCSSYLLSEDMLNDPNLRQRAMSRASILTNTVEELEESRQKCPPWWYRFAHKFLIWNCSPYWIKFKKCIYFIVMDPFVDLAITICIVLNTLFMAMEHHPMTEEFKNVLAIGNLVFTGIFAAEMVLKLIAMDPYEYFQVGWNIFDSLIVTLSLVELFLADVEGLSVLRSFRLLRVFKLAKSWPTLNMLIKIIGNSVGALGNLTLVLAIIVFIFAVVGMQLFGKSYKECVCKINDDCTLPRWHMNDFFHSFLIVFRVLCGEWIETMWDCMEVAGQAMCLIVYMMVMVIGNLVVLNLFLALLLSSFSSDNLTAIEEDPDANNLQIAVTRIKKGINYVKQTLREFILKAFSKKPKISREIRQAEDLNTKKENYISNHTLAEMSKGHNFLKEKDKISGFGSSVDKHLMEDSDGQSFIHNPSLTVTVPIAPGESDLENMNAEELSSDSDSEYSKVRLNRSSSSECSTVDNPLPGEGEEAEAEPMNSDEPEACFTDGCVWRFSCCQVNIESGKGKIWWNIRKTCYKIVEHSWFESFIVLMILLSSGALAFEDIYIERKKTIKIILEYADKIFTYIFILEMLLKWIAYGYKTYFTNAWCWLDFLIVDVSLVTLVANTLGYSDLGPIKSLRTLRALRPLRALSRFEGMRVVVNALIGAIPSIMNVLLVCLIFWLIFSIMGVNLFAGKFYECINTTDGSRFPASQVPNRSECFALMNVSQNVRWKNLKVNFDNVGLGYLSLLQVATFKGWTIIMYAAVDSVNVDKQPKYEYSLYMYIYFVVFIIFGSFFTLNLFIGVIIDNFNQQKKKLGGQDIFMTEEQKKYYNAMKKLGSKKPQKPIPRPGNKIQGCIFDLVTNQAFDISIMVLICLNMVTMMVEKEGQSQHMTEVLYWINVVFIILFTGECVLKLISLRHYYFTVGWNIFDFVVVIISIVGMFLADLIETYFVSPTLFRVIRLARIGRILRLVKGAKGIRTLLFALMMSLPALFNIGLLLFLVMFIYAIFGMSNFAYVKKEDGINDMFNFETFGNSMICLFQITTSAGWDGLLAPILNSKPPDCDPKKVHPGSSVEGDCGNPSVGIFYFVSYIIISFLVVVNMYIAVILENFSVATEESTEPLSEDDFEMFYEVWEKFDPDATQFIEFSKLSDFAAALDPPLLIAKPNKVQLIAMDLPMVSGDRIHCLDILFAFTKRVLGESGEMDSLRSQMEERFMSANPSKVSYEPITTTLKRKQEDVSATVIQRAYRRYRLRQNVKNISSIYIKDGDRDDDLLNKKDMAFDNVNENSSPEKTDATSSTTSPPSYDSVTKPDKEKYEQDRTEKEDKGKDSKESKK

Turning to `CC[C@H](C)[C@H](NC(=O)[C@H](CCCCN)NC(=O)[C@@H](NC(=O)[C@@H](N)CCCNC(=N)N)[C@@H](C)CC)C(=O)NCC(=O)N[C@@H](CC(C)C)C(=O)N[C@@H](Cc1ccccc1)C(=O)N[C@@H](CC(=O)O)C(=O)N[C@@H](CCC(N)=O)C(=O)N[C@@H](CC(C)C)C(=O)N[C@@H](CO)C(=O)N[C@@H](CCCNC(=N)N)C(=O)N[C@@H](CC(C)C)C(N)=O` (H-RIKIGLFDQLSRL-NH2), the Ratio AUC in data set [1] was 1; in data set [2] it was 0.9; in data set [3] it was 0.8; in data set [4], 1; in [5], 1.2; in [6] it was 1. The Ratio AUC in data set [7] was 1.3; in data set [8] it was 1.1; in data set [9], 1.1; in data set [11] it was 1.4. The same compound had an Activity in data set [10] of 40%.
Turning to `CC[C@H](C)[C@H](NC(=O)[C@H](CCCCN)NC(=O)[C@@H](NC(=O)[C@@H](N)CCCNC(=N)N)[C@@H](C)CC)C(=O)NCC(=O)N[C@@H](CC(C)C)C(=O)N[C@@H](Cc1cccc2ccccc12)C(=O)N[C@@H](CC(=O)O)C(=O)N[C@@H](CCC(N)=O)C(=O)N[C@@H](CC(C)C)C(=O)N[C@@H](CO)C(=O)N[C@@H](CCCNC(=N)N)C(=O)N[C@@H](CC(C)C)C(N)=O` (H-RIKIGL[1Nal]DQLSRL-NH2), the Ratio AUC in data set [1] stood at 1; in data set [2], 1.8; in [3], 1.4; in data set [4], 1.2; in data set [5], 2; in [6], 1.7. The Ratio AUC in data set [7] amounted to 3.1; in data set [8] it was 2.9; in [9] it was 1.8; in data set [11], 3.1. Further, the outcome in data set [12] was Active.
In the case of `CC[C@H](C)[C@H](NC(=O)[C@H](CCCCN)NC(=O)[C@@H](NC(=O)[C@@H](N)CCCNC(=N)N)[C@@H](C)CC)C(=O)NCC(=O)N[C@@H](CC(C)C)C(=O)N[C@@H](Cc1ccc2ccccc2c1)C(=O)N[C@@H](CC(=O)O)C(=O)N[C@@H](CCC(N)=O)C(=O)N[C@@H](CC(C)C)C(=O)N[C@@H](CO)C(=O)N[C@@H](CCCNC(=N)N)C(=O)N[C@@H](CC(C)C)C(N)=O` (H-RIKIGL[2Nal]DQLSRL-NH2), the Ratio AUC was found to be 1.3 in data set [1]; 2.4 in data set [2]; 1.6 in data set [3]; 2.1 in data set [4]; 1.9 in data set [5]; 4 in data set [6]. Also, the Ratio AUC in data set [7] amounted to 6.7; in data set [8], 4; in data set [9], 5; in data set [11], 10.7.
Take `CC[C@H](C)[C@H](NC(=O)[C@H](CCCNC(=N)N)NC(=O)[C@@H](NC(=O)[C@@H](N)CCCNC(=N)N)[C@@H](C)CC)C(=O)NCC(=O)N[C@@H](CC(C)C)C(=O)N[C@@H](Cc1ccc2ccccc2c1)C(=O)N[C@@H](CC(=O)O)C(=O)N[C@@H](CCC(N)=O)C(=O)N[C@@H](CC(C)C)C(=O)N[C@@H](CC(C)C)C(=O)N[C@@H](CCCNC(=N)N)C(=O)N[C@@H](CC(C)C)C(N)=O` (H-RIRIGL[2Nal]DQLLRL-NH2): the Ratio AUC in data set [1] was found to be 1.4; in data set [2], 7.1; in data set [3] it was 1.6; in data set [4], 2.5; in data set [5] it was 4.4; in data set [6], 1.3. Besides, the Ratio AUC in [7] is 8.1; in data set [8], 9.6; in data set [9], 5.2; in data set [11], 12.7. In data set [10], this compound yielded an Activity of 1170%.
